According to paper PMC5734605 (Journal of Medicinal Chemistry, 2017):

Target: TbNMT (Trypanosoma brucei brucei, UniProt Q388H8)
Sequence (Q388H8 1-446): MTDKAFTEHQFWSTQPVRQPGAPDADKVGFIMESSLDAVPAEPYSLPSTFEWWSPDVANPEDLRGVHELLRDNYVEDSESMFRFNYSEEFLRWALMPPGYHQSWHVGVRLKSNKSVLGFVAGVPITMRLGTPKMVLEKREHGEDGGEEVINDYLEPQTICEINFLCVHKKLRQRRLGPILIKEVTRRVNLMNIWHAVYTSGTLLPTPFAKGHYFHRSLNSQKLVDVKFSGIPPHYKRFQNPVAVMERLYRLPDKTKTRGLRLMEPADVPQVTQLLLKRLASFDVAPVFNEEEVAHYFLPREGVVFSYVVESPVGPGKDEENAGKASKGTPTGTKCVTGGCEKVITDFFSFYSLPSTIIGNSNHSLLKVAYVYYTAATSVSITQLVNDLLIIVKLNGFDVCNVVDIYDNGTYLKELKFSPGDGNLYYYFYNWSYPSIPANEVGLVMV

Compound | activity against TbNMT (in words)
Cc1nn(C)c(C)c1COc1cccc(-c2cccc(C3CCNCC3)c2)c1 [Compound 17, 4-(3′-((1,3,5-Trimethyl-1H-pyrazol-4-yl)methoxy)-[1,1′-biphenyl]-3-yl)piperidine] | completely inactive
3-((2,6-Dichloro-4-(3-(piperidin-4-yl)propyl)phenoxy)methyl)-2-methylpyridine [Compound 70] | no in vitro activity
